Results: patent US20060263346A1, “Combined pharmaceutical preparations for the treatment of cancer, containing glutaminase and antineoplastic anthracyclines or platinum compounds” (priority 2003, published 2006)

Key:
Format in all cases: cell-based
[1] = tested on: breast tumor (MCF7) cells; assay: Sulforhodamine in vitro cell growth test, breast tumor cells MCF7; conditions: 48 h
Description: (§1) Cell lines from tumors of the breast (MCF7), lung (NCI-H460, A549), colon (SW-60, HT29) and CNS (SF-539) were used for the test. The tumor cells were cultured in RPMI 1640 medium containing 7.5% foetal calf serum at 37° C. and 5% CO2. After the cells had grown for 24 hours, they were incubated with the substances to be tested for 48 hours.
(§2) The antineoplastic agents used for the experiments were obtained from Sigma in cell culture quality.
(§3) A Pseudomonas 7A glutaminase-asparaginase modified with polyethylene glycol (DE 41 40 003 A1, WO 94/13817 A1 and WO 02/31498 A2) was used as the glutaminase.
(§4) After a 48 hour incubation period cell growth was determined by means of the absorption of the bound sulforhodamine dye at 575 nm. The percentage growth was calculated as follows: [formula] in which PW denotes percentage growth, C denotes untreated control cells, T denotes the amount of treated cells and the indices 0 and t denote the amount of cells at time 0 and after 48 hours.

colon tumor (HT29) cells = assay: Sulforhodamine in vitro cell growth test, colon tumor cells HT29; conditions: 2 μg/ml cis-platinum alone, 48 h
Description: as §1, §2, §3, §4

lung tumor (A549) cells = assay: Sulforhodamine in vitro cell growth test, lung tumor cells A549; conditions: 48 h
Description: as §1, §2, §3, §4

[2] = tested on: lung tumor (NCI-H23) cells; assay: Sulforhodamine in vitro cell growth test, lung tumor cells NCI-H23; conditions: 48 h
Description: as §1, §2, §3, §4

Compound: CO[C@@]12[C@H](COC(N)=O)C3=C(C(=O)C(C)=C(N)C3=O)N1C[C@@H]1N[C@@H]12 [Mitomycin, mitomycin]
- growth compared to the control ([1]; 0.026 μg/ml mitomycin alone): 66%

Compound: N.N.[Cl][Pt][Cl] [Cis-platinum, cis-platinum]
- tumor cell growth (colon tumor (HT29) cells): 65%
- tumor cell growth (lung tumor (A549) cells; 2 μg/ml cis-platinum alone): 41%
- tumor cell growth ([1]; 2 μg/ml cis-platinum alone): 86%

Compound: N[C@@H](Cc1ccc(N(CCCl)CCCl)cc1)C(=O)O [Melphalan, melphalan]
- tumor growth ([2]; 68 μg/ml melphalan alone): 34%

Compound: COc1cc([C@@H]2c3cc4c(cc3[C@@H](O[C@@H]3O[C@@H]5CO[C@@H](C)O[C@H]5[C@H](O)[C@H]3O)[C@H]3COC(=O)[C@H]23)OCO4)cc(OC)c1O [Etoposide, etoposide]
- growth compared to the control (lung tumor (A549) cells; 2.3 μg/ml etoposide alone): about 40%
- growth compared to the control ([1]; 2.3 μg/ml etoposide alone): about 40%
- growth compared to the control ([2]; 2.3 μg/ml etoposide alone): about 40%
